One assay deals with T1, human ETA receptors (Homo sapiens, UniProt P25101).
T1 construct: made in house
T1 sequence (P25101 21-427): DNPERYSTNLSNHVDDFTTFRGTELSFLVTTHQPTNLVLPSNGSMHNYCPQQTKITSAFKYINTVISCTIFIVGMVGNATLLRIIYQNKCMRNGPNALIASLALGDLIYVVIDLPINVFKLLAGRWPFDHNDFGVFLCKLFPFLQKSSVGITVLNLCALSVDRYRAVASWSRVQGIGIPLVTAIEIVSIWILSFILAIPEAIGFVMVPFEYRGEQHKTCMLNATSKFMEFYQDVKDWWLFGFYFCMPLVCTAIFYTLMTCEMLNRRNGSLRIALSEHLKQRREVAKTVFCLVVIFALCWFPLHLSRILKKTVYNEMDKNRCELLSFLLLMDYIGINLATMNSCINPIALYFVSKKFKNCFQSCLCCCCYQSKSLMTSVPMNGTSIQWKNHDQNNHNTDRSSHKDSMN
In words: Inhibition of Endothelin Binding to Recombinant ETA Receptors. The settings on record: inhibition of 50% of the specific binding of 125I-endothelin (20 pM), baculovirus-insect cell membranes. As for the experimental part:
I: Inhibition of Endothelin Binding to Recombinant ETA Receptors
A cDNA coding for human ETA receptors of human placenta was cloned (M. Adachi, Y.-Y. Yang, Y. Furuichi and C. Miyamoto, BBRC 180, 1265-1272) and expressed in the baculovirus-insect cell system. Baculovirus-infected insect cells from a 23 l fermenter are centrifuged off (3000×g, 15 minutes, 4° C.) 60 hours after the infection, re-suspended in Tris buffer (5 mM, pH 7.4, 1 mM MgCl2) and again centrifuged. After a further re-suspension and centrifugation the cells are suspended in 800 ml of the same buffer and […] at -120° C. The cells disintegrate when the suspension in this hypotonic buffer mixture is thawed. After a repeated freeze-drying/thawing cycle the suspension is homogenized and centrifuged (25000×g, 15 minutes, 4° C.). After suspension in Tris buffer (75 mM, pH 7.4, 25 mM MgCl2, 250 mM saccharose) 1 ml aliquots (protein content about 3.5 mg/ml) are stored at -85° C.
(§1) For the binding assay, the freeze-dried membrane preparations are thawed and, after centrifugation at 20° C. and 25000 g for 10 minutes, re-suspended in assay buffer (50 mM Tris buffer, pH 7.4, containing 25 mM MnCl2, 1 mM EDTA and 0.5% bovine serum albumin). 100 μl of this membrane suspension containing 5 μg of protein are incubated with 50 μl of ^125 I-endothelin (specific activity 2200 Ci/mMol) in assay buffer (25000 cpm, final concentration 20 pM) and 100 μl of assay buffer containing varying concentrations of test compound. The incubation is carried out at 20° C. for 2 hours or at 4° C. for 24 hours. The separation of free and membrane-bound radio-ligands is carried out by filtration over a glass fibre filter.
(§2) The inhibitory activity on ETA and ETB receptors of compounds of formula I determined in these test procedures is given in Table 1 as the IC50, i.e. as the concentration [μM] which is required to inhibit 50% of the specific binding of ^125 I-endothelin.

The next assay concerns the target T2, ETB receptor (Homo sapiens, UniProt P24530).
T2 construct: Human placenta is homogenized in 5 mM Tris buffer; from tissue; host or cells: human placenta membranes
T2 sequence (P24530 27-442): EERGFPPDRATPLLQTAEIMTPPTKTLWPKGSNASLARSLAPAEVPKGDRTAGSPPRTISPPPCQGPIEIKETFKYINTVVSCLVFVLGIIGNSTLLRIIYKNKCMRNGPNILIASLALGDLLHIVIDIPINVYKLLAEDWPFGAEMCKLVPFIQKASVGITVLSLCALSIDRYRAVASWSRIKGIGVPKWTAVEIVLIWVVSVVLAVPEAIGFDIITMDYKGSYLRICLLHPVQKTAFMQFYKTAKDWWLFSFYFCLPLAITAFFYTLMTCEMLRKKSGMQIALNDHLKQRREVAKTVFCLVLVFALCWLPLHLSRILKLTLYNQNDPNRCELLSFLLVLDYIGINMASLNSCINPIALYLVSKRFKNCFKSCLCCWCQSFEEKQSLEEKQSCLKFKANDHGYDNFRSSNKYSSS
In words: Inhibition of Endothelin Binding to Human Placenta Membranes (ETB receptor). The settings on record: inhibition of 50% of the specific binding of 125I-endothelin (20 pM). The procedure:
II: Inhibition of Endothelin Binding to Human Placenta Membranes (ETB receptor) (see. Life Sci 44:1429 (1989))
Human placenta is homogenized in 5 mM Tris buffer, pH 7.4, which contains 1 mM MgCl2 and 250 mM sucrose. The homogenizate is centrifuged at 4° C. and 3000 g for 15 minutes, the supernatant containing the plasma membrane fraction is centrifuged at 72000 g for 30 minutes and the precipitate is washed with 75 mM Tris buffer, pH 7.4, which contains 25 mM MgCl2. Thereafter, precipitate obtained from in each case 10 g of original tissue is suspended in 1 ml of 75 mM Tris buffer, pH 7.4, containing 25 mM MgCl2 and 250 mM sucrose, and freeze-dried at -20° C. in 1 ml aliquots.
as §1, with “containing 35” for “containing 5”, “with” for “with 50”
as §2

The test system of a further assay is Isolated Rat Aorta Rings. In words: Inhibition of Endothelin-Induced Contractions in Isolated Rat Aorta Rings. The format is cell-based, rat (Wistar-Kyoto). The settings on record: for Kb: Rattus norvegicus, Table 2, text calls these the pA2 values, endothelin-1 contraction, endothelium removed, 37° C, 10 min preincubation, read-out: Dosage ratio (switch to the right) (converted). The procedure:
III. Inhibition of Endothelin-Induced Contractions in Isolated Rat Aorta Rings
Rings with a length of 5 mm were cut out from the thorax aorta of adult Wistar-Kyoto rats. The endothelium was removed by lightly rubbing the internal surface. Each ring was immersed at 37° C. in 10 ml of Krebs-Henseleit solution in an isolated bath while gassing with 95% O2 and 5% CO2. The isometric stretching of the rings was measured. The rings were stretched to a pretension of 3 g. After incubation for 10 minutes with the test compound or vehicle cumulative dosages of endothelin-1 were added. The activity of the test compound was ascertained by the observed shift to the right of the dosage-activity curve of endothelin-1 in the presence of different concentrations of antagonist. This shift to the right (or "dose ratio", DR) corresponds to the quotient from the EC50 values of endothelin-1 in the presence and in the absence of antagonist, with the EC50 value denoting the endothelin concentration required for a half-maximum contraction.
The corresponding PA2 value, which is a measure of the activity of the test compound, was calculated using a computer programme according to the following equation from the "dose ratio" DR for each individual dosage-activity curve.
pA2 =log(DR-1)-log(antagonist-concentration)
The EC50 of endothelin in the absence of test compounds is 0.3 nM.

As for `COc1cccc(Oc2c(NS(=O)(=O)c3ccc(C(C)(C)C)cc3)cc(C(=O)Nc3ccccc3)cc2OCCO)c1` [Example 89, 3-(4-tert-butylbenzenesulphonylamino)-5-(2-hydroxy-ethoxy)-4-(3-methoxy-phenoxy)-N-phenyl-benzamide], the figures for the IC50 at human ETA receptors and at ETB receptor were more than 100000 nM and 65 nM, respectively.

Take `COc1ccc(Cl)c(Oc2c(NS(=O)(=O)c3ccc(C(F)(F)F)cc3)cc(C(=O)Nc3ccccc3)cc2OCCO)c1` [Example 85, 4-(2-chloro-5-methoxy-phenoxy)-3-(2-hydroxy-ethoxy)-N-phenyl-5-(4-trifluoromethyl-benzenesulphonylamino)-benzamide]: the IC50 – broadly, the midpoint of a concentration-inhibition curve – came to 86000 nM on human ETA receptors and 20 nM on ETB receptor.

For the compound `COc1ccccc1Oc1c(NS(=O)(=O)c2ccc(C(C)C)cn2)cc(C(=O)N2CCOCC2)cc1OCCOC(=O)Nc1ccccn1` [Example 31, pyridin-2-yl-carbamicacid 2-[3-(5-isopropyl-pyridine-2-sulphonylamino)-2-(2-methoxy-phenoxy)-5(morpholine-4-carbonyl)-phenoxy]-ethyl ester], the values for the IC50 on human ETA receptors and on ETB receptor were 6 nM and 850 nM, respectively.

In the case of `COc1cccc(Oc2c(NS(=O)(=O)c3ccc(SC)cc3)cc(C(=O)Nc3ccccc3)cc2OCCO)c1` [Example 105, 3-(2-hydroxy-ethoxy)-4-(3-methoxy-phenoxy)-5-(4-methylsulphanyl-benzenesulphonyl-amino)-N-phenyl-benzamide], the IC50 at human ETA receptors was more than 100000 nM; on ETB receptor, 15 nM.

Consider `CCOC(=O)N1CCN(C(=O)c2cc(NS(=O)(=O)c3ccc(C(C)C)cn3)c(Oc3ccccc3OC)c(OCCOC(=O)Nc3ccccn3)c2)CC1` [Example 36, ethyl 4-{3-(5-iso-propyl-pyridine-2-sulphonylamino)-4-(2-methoxy-phenoxy)-5-[2-(pyridin-2-ylcarbamoyloxy)-ethoxy]-benzoyl}-piperazine-1-carboxylate], for which the IC50 on human ETA receptors was determined as 2 nM; at ETB receptor, 650 nM. In addition, the Kb in the assay on Isolated Rat Aorta Rings is 6.31 nM.

Consider `COc1ccccc1Oc1c(NS(=O)(=O)c2ccc(C(C)C)cn2)cc(C(=O)N2CCN(C)CC2)cc1OCCOC(=O)Nc1ccccn1` [Example 33, pyridin-2-yl-carbamic acid 2-[3-(5-isopropyl-pyridine-2-sulphonylamino)-2-(2-methoxy-phenoxy)-5-(4-methyl-piperazine-1-carbonyl)-phenoxy]-ethyl ester], for which the results for the IC50 on human ETA receptors and on ETB receptor were 10 nM and 440 nM, respectively. In the assay with Isolated Rat Aorta Rings, the Kb was 39.8 nM.

As for “endothelin: endothelin-1, contracting agonist added in cumulative dosages to rat aorta rings [reference compound]”, the EC50 (as a rule, the concentration that produces a half-maximal response) in the assay on Isolated Rat Aorta Rings (half-maximum contraction, absence of test compounds) came to 0.3 nM.
